Assay results reported in US6653455B1, “Crystallization of doxorubicin hydrochloride” (Mercian Corporation, priority 1998, dated 2003).
Where a name gives a salt, the structure may show the parent alone.

experiment: Average particle diameter, microscopic method (Heywood circle-corresponding diameter); format: physicochemical; details: 10 typical crystals on photograph, hydrochloride
From the text: The average particle diameter is shown by a diameter of a circle having the same area as an injected area of the particle, a so-called Heywood diameter (circle-corresponding diameter) according to a microscopic method (injected image). A small amount of the crystals was put on a slide glass, and 1 to 2 drops of a hydrophilic surfactant (sesquioleic acid sorbitan) were fallen thereon to disperse them. It was photographed by means of a polarization microscope (photographing lens: 3.3 magnifications, objective lens: 20 magnifications) equipped with a photographing device. Optional 10 pieces of the typical crystals were selected on the photograph to measure a long diameter and a short diameter thereof An (projected) area of the particle was shown by long diameter×short diameter, and the particle diameter was shown by a diameter of a circle having the same area as that obtained above.

SMILES | Average particle diameter [μm]
COc1cccc2c1C(=O)c1c(O)c3c(c(O)c1C2=O)C[C@@](O)(C(=O)CO)C[C@@H]3O[C@H]1C[C@H](N)[C@H](O)[C@H](C)O1 [Example 4, doxorubicin hydrochloride] | <4
COc1cccc2c1C(=O)c1c(O)c3c(c(O)c1C2=O)C[C@@](O)(C(=O)CO)C[C@@H]3O[C@H]1C[C@H](N)[C@H](O)[C@H](C)O1 [Example 13, doxorubicin hydrochloride] | <4
COc1cccc2c1C(=O)c1c(O)c3c(c(O)c1C2=O)C[C@@](O)(C(=O)CO)C[C@@H]3O[C@H]1C[C@H](N)[C@H](O)[C@H](C)O1 [Example 16, doxorubicin hydrochloride] | <4
COc1cccc2c1C(=O)c1c(O)c3c(c(O)c1C2=O)C[C@@](O)(C(=O)CO)C[C@@H]3O[C@H]1C[C@H](N)[C@H](O)[C@H](C)O1 [Example 19, doxorubicin hydrochloride] | 17

experiment: Hygroscopicity, cup method (weight change); format: physicochemical; details: weight-increasing rate, 25° C., 50 to 60% RH, 15 minutes; crystals dried at 40° C. under vacuum; hydrochloride
Experimental: Determined by the following cup method. To be specific, about 15 to 20 mg of the sample was put in a cylindrical cup having a diameter of 6 mm and a depth of 6 mm and left standing at a fixed temperature (25° C.) and relative humidity (50 to 60% RH) for 15 minutes to measure a weight change, whereby the hygroscopicity was evaluated.
In the following respective examples, a weight-increasing rate of 0.40% or more is shown by an evaluation criterion that the hygroscopicity is large (−); a weight-increasing rate of 0.20% or more and less than 0.40% is shown by an evaluation criterion that the hygroscopicity is ;intermediate (±); and a weight-increasing rate of less than 0.20% is shown by an evaluation criterion that the hygroscopicity is small: (+).

SMILES | Hygroscopicity
COc1cccc2c1C(=O)c1c(O)c3c(c(O)c1C2=O)C[C@@](O)(C(=O)CO)C[C@@H]3O[C@H]1C[C@H](N)[C@H](O)[C@H](C)O1 [Example 1, doxorubicin hydrochloride] | − (a weight-increasing rate of 0.40% or more is shown by an evaluation criterion that the hygroscopicity is large (−))
COc1cccc2c1C(=O)c1c(O)c3c(c(O)c1C2=O)C[C@@](O)(C(=O)CO)C[C@@H]3O[C@H]1C[C@H](N)[C@H](O)[C@H](C)O1 [Example 3, doxorubicin hydrochloride] | − (a weight-increasing rate of 0.40% or more is shown by an evaluation criterion that the hygroscopicity is large (−))
COc1cccc2c1C(=O)c1c(O)c3c(c(O)c1C2=O)C[C@@](O)(C(=O)CO)C[C@@H]3O[C@H]1C[C@H](N)[C@H](O)[C@H](C)O1 [Example 4, doxorubicin hydrochloride] | − (a weight-increasing rate of 0.40% or more is shown by an evaluation criterion that the hygroscopicity is large (−))
COc1cccc2c1C(=O)c1c(O)c3c(c(O)c1C2=O)C[C@@](O)(C(=O)CO)C[C@@H]3O[C@H]1C[C@H](N)[C@H](O)[C@H](C)O1 [Example 8, doxorubicin hydrochloride] | − (a weight-increasing rate of 0.40% or more is shown by an evaluation criterion that the hygroscopicity is large (−))
COc1cccc2c1C(=O)c1c(O)c3c(c(O)c1C2=O)C[C@@](O)(C(=O)CO)C[C@@H]3O[C@H]1C[C@H](N)[C@H](O)[C@H](C)O1 [Example 9, doxorubicin hydrochloride] | − (a weight-increasing rate of 0.40% or more is shown by an evaluation criterion that the hygroscopicity is large (−))
COc1cccc2c1C(=O)c1c(O)c3c(c(O)c1C2=O)C[C@@](O)(C(=O)CO)C[C@@H]3O[C@H]1C[C@H](N)[C@H](O)[C@H](C)O1 [Example 13, doxorubicin hydrochloride] | ± (a weight-increasing rate of 0.20% or more and less than 0.40% is shown by an evaluation criterion that the hygroscopicity is ;intermediate (±))
COc1cccc2c1C(=O)c1c(O)c3c(c(O)c1C2=O)C[C@@](O)(C(=O)CO)C[C@@H]3O[C@H]1C[C@H](N)[C@H](O)[C@H](C)O1 [Example 14, doxorubicin hydrochloride] | ± (a weight-increasing rate of 0.20% or more and less than 0.40% is shown by an evaluation criterion that the hygroscopicity is ;intermediate (±))
COc1cccc2c1C(=O)c1c(O)c3c(c(O)c1C2=O)C[C@@](O)(C(=O)CO)C[C@@H]3O[C@H]1C[C@H](N)[C@H](O)[C@H](C)O1 [Example 15, doxorubicin hydrochloride] | − (a weight-increasing rate of 0.40% or more is shown by an evaluation criterion that the hygroscopicity is large (−))
COc1cccc2c1C(=O)c1c(O)c3c(c(O)c1C2=O)C[C@@](O)(C(=O)CO)C[C@@H]3O[C@H]1C[C@H](N)[C@H](O)[C@H](C)O1 [Example 16, doxorubicin hydrochloride] | ± (a weight-increasing rate of 0.20% or more and less than 0.40% is shown by an evaluation criterion that the hygroscopicity is ;intermediate (±))
COc1cccc2c1C(=O)c1c(O)c3c(c(O)c1C2=O)C[C@@](O)(C(=O)CO)C[C@@H]3O[C@H]1C[C@H](N)[C@H](O)[C@H](C)O1 [Example 17, doxorubicin hydrochloride] | − (a weight-increasing rate of 0.40% or more is shown by an evaluation criterion that the hygroscopicity is large (−))
COc1cccc2c1C(=O)c1c(O)c3c(c(O)c1C2=O)C[C@@](O)(C(=O)CO)C[C@@H]3O[C@H]1C[C@H](N)[C@H](O)[C@H](C)O1 [Example 18, doxorubicin hydrochloride] | − (a weight-increasing rate of 0.40% or more is shown by an evaluation criterion that the hygroscopicity is large (−))
COc1cccc2c1C(=O)c1c(O)c3c(c(O)c1C2=O)C[C@@](O)(C(=O)CO)C[C@@H]3O[C@H]1C[C@H](N)[C@H](O)[C@H](C)O1 [Example 19, doxorubicin hydrochloride] | ± (a weight-increasing rate of 0.20% or more and less than 0.40% is shown by an evaluation criterion that the hygroscopicity is ;intermediate (±))
COc1cccc2c1C(=O)c1c(O)c3c(c(O)c1C2=O)C[C@@](O)(C(=O)CO)C[C@@H]3O[C@H]1C[C@H](N)[C@H](O)[C@H](C)O1 [Example 25, doxorubicin hydrochloride] | + (a weight-increasing rate of less than 0.20% is shown by an evaluation criterion that the hygroscopicity is small: (+))
COc1cccc2c1C(=O)c1c(O)c3c(c(O)c1C2=O)C[C@@](O)(C(=O)CO)C[C@@H]3O[C@H]1C[C@H](N)[C@H](O)[C@H](C)O1 [Example 26, doxorubicin hydrochloride] | + (a weight-increasing rate of less than 0.20% is shown by an evaluation criterion that the hygroscopicity is small: (+))
COc1cccc2c1C(=O)c1c(O)c3c(c(O)c1C2=O)C[C@@](O)(C(=O)CO)C[C@@H]3O[C@H]1C[C@H](N)[C@H](O)[C@H](C)O1 [Example 27, doxorubicin hydrochloride] | ± (a weight-increasing rate of 0.20% or more and less than 0.40% is shown by an evaluation criterion that the hygroscopicity is ;intermediate (±))
COc1cccc2c1C(=O)c1c(O)c3c(c(O)c1C2=O)C[C@@](O)(C(=O)CO)C[C@@H]3O[C@H]1C[C@H](N)[C@H](O)[C@H](C)O1 [Example 29, doxorubicin hydrochloride] | + (a weight-increasing rate of less than 0.20% is shown by an evaluation criterion that the hygroscopicity is small: (+))
COc1cccc2c1C(=O)c1c(O)c3c(c(O)c1C2=O)C[C@@](O)(C(=O)CO)C[C@@H]3O[C@H]1C[C@H](N)[C@H](O)[C@H](C)O1 [Example 31, doxorubicin hydrochloride] | + (a weight-increasing rate of less than 0.20% is shown by an evaluation criterion that the hygroscopicity is small: (+))
COc1cccc2c1C(=O)c1c(O)c3c(c(O)c1C2=O)C[C@@](O)(C(=O)CO)C[C@@H]3O[C@H]1C[C@H](N)[C@H](O)[C@H](C)O1 [Example 36, doxorubicin hydrochloride] | ± (a weight-increasing rate of 0.20% or more and less than 0.40% is shown by an evaluation criterion that the hygroscopicity is ;intermediate (±))
COc1cccc2c1C(=O)c1c(O)c3c(c(O)c1C2=O)C[C@@](O)(C(=O)CO)C[C@@H]3O[C@H]1C[C@H](N)[C@H](O)[C@H](C)O1 [Example 37, doxorubicin hydrochloride] | + (a weight-increasing rate of less than 0.20% is shown by an evaluation criterion that the hygroscopicity is small: (+))
COc1cccc2c1C(=O)c1c(O)c3c(c(O)c1C2=O)C[C@@](O)(C(=O)CO)C[C@@H]3O[C@H]1C[C@H](N)[C@H](O)[C@H](C)O1 [Example 39, doxorubicin hydrochloride] | + (a weight-increasing rate of less than 0.20% is shown by an evaluation criterion that the hygroscopicity is small: (+))
COc1cccc2c1C(=O)c1c(O)c3c(c(O)c1C2=O)C[C@@](O)(C(=O)CO)C[C@@H]3O[C@H]1C[C@H](N)[C@H](O)[C@H](C)O1 [Example 41, doxorubicin hydrochloride] | + (a weight-increasing rate of less than 0.20% is shown by an evaluation criterion that the hygroscopicity is small: (+))
COc1cccc2c1C(=O)c1c(O)c3c(c(O)c1C2=O)C[C@@](O)(C(=O)CO)C[C@@H]3O[C@H]1C[C@H](N)[C@H](O)[C@H](C)O1 [Example 43, doxorubicin hydrochloride] | + (a weight-increasing rate of less than 0.20% is shown by an evaluation criterion that the hygroscopicity is small: (+))
COc1cccc2c1C(=O)c1c(O)c3c(c(O)c1C2=O)C[C@@](O)(C(=O)CO)C[C@@H]3O[C@H]1C[C@H](N)[C@H](O)[C@H](C)O1 [Example 50, doxorubicin hydrochloride] | + (a weight-increasing rate of less than 0.20% is shown by an evaluation criterion that the hygroscopicity is small: (+))
COc1cccc2c1C(=O)c1c(O)c3c(c(O)c1C2=O)C[C@@](O)(C(=O)CO)C[C@@H]3O[C@H]1C[C@H](N)[C@H](O)[C@H](C)O1 [Example 52, doxorubicin hydrochloride] | + (a weight-increasing rate of less than 0.20% is shown by an evaluation criterion that the hygroscopicity is small: (+))
COc1cccc2c1C(=O)c1c(O)c3c(c(O)c1C2=O)C[C@@](O)(C(=O)CO)C[C@@H]3O[C@H]1C[C@H](N)[C@H](O)[C@H](C)O1 [Example 53, doxorubicin hydrochloride] | + (a weight-increasing rate of less than 0.20% is shown by an evaluation criterion that the hygroscopicity is small: (+))
COc1cccc2c1C(=O)c1c(O)c3c(c(O)c1C2=O)C[C@@](O)(C(=O)CO)C[C@@H]3O[C@H]1C[C@H](N)[C@H](O)[C@H](C)O1 [Example 54, doxorubicin hydrochloride] | + (a weight-increasing rate of less than 0.20% is shown by an evaluation criterion that the hygroscopicity is small: (+))
